Tests used:
B16 melanoma cells = assay: Survival of melanoma-bearing mice treated with anti-PD1; assay type: in vivo; settings: combined with anti-PD1, compared to anti-PD1 only
Description: FIG. 7: • (a) Treatment schedule: Mice were injected iv with B16 melanoma cells and afterwards treated with anti-PD1, prednisolone or ECP as indicated. • (b) Survival of mice injected iv with B16 melanoma cells and afterwards treated with anti-PD1, prednisolone or ECP.
To understand if the immunomodulatory effect of ECP was connected to a loss of anti-tumor activity we next treated melanoma bearing mice with anti-PD1 alone or in combination with the glucocorticoid prednisolone or ECP (FIG. 7A). We observed that prednisolone reduced the survival of melanoma-bearing mice compared to the group treated with anti-PD1 only (FIG. 7B).

[1] = test system: immune checkpoint inhibitor-related colitis; assay: Immunosuppressive drug treatment of the patient's colitis episodes before ECP; assay type: in vivo, human
Description: (§1) A patient was treated with ipilimumab and nivolumab for metastatic melanoma. […] Colitis was diagnosed based on macroscopic mucosal ulcerations and intraepithelial apoptosis and crypt loss identified in the biopsy (FIG. 1a,b). While dermatitis, thyroiditis and hepatitis resolved after stopping ipilimumab/nivolumab and corticosteroid treatment, the patient experienced three colitis episodes within the next 20 weeks (CTC-AE II-III°). These were treated with corticosteroids (in total 23 weeks prior to ECP), infliximab (2 single doses 18 and 15 weeks prior to ECP) and cyclosporine (14 weeks prior to ECP, FIG. 1a and Table 1).
The patient had their first episode of colitis 20 weeks prior to the start of ECP. At that time point they had been treated for 3 weeks with steroids for their previous immune checkpoint inhibitor-related hepatitis, thyroiditis and dermatitis. The colitis occurred during tapering of the steroids. Therefore, the steroid dose was increased and due to an insufficient response, infliximab 5 mg/kg BW was administered once. […] Upon steroid tapering, the patient experienced their second episode of colitis, 16 weeks prior to begin of ECP. They were treated with an increased dose of methylprednisolone and a second dose of infliximab. The diarrhea was refractory to this therapy and consequently cyclosporine A was added. […] Here, ECP treatment was initiated. […]

[2] = Adverse events of ipilimumab and nivolumab in the metastatic melanoma patient; assay type: in vivo, human; settings: after two doses of ipilimumab and nivolumab
Description: as §1

With `C[C@]12C=CC(=O)C=C1CC[C@@H]1[C@@H]2[C@@H](O)C[C@@]2(C)[C@H]1CC[C@]2(O)C(=O)CO` [prednisolone] the “survival of melanoma-bearing mice” value (B16 melanoma cells) was “reduced”.
With infliximab: anti-TNF antibody the “diarrhea, second episode” value ([1]; increased dose of methylprednisolone and a second dose of infliximab) was “refractory” and the “colitis symptoms, first episode” value ([1]; infliximab 5 mg/kg BW once, added to increased steroid dose) was “symptoms resolved”.
For “ipilimumab: antagonistic antibody directed against CTLA4”, the “immune-related adverse events developed” value [2] was “dermatitis, thyroiditis, hepatitis and colitis”.
For “nivolumab: antagonistic anti-PD-1 antibody”, the “immune-related adverse events developed” value [2] was “dermatitis, thyroiditis, hepatitis and colitis”.
